pIC50: −log10 of the molar value.
molecular target: T1, GBA2 (Homo sapiens, UniProt Q9HCG7); experiment: Determination of IC50 values for inhibition of GBA2 in cell lysate; assay type: biochemical; design: host or cells: HEK293T (lentiviral transduction, puromycin selection); used as cellular homogenate; details: cellular homogenate of HEK293T cells overexpressing human GBA2, 250 μM 4-methylumbelliferone-β-D glucopyranoside, pH 5.5, 37° C., GCase inhibitor present; read-out: GBA2 IC50
T1 sequence (Q9HCG7 1-927): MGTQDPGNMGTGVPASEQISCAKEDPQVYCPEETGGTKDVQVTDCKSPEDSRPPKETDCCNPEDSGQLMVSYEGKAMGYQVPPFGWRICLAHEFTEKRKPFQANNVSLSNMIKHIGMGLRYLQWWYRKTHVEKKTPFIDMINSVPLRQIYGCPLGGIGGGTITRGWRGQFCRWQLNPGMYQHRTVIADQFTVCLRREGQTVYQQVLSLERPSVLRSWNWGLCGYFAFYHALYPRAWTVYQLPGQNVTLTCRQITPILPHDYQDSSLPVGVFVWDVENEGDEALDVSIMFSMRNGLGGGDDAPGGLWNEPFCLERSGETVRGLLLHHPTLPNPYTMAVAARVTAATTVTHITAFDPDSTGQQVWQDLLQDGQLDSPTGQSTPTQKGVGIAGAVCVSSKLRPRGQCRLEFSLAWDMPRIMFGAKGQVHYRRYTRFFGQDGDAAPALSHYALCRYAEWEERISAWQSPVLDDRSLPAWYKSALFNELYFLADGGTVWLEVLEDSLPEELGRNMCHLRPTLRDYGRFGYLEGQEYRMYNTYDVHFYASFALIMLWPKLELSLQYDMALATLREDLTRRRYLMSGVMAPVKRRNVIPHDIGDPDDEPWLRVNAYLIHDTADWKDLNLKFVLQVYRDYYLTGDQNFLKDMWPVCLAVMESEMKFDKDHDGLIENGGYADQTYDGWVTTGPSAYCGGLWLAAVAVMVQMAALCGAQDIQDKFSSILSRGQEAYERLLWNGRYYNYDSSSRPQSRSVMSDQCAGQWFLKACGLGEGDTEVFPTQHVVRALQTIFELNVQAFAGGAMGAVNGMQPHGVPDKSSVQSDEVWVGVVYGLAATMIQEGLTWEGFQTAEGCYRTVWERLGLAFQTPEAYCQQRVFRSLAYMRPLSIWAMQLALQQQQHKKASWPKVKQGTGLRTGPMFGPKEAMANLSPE
In short: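 Fluorogenic 4-MU-β-glucoside (250 μM) turnover over 20 min at 37 °C, pH 5.5, measured after NaOH/glycine stop (ex 365, em 450 nm). Enzyme source: lysate (0.083 mg/mL) of lentivirally transduced GBA2-HEK293T, GCase blocked by 20 μM azaspiro-octanediol; compound preincubated 5 min; IC50 = 50% inhibition concentration.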

Question: `CCCC(=O)N1CCC(CN2C[C@H](O)[C@@H](O)[C@H](O)[C@H]2C)CC1` [Example 94, 1-(4-(((2R,3R,4R,5S)-3,4,5-trihydroxy-2-methylpiperidin-1-yl)methyl)piperidin-1-yl)butan-1-one] was tested. Which pIC50 did it give?
Answer: Its pIC50 is 4.60 to 6.00.

Question: How did the pIC50 turn out when `CC(C)CC(=O)N1CCC(CN2C[C@H](O)[C@@H](O)[C@H](O)[C@H]2C)CC1` [Example 95, 3-methyl-1-(4-(((2R,3R,4R,5S)-3,4,5-trihydroxy-2-methylpiperidin-1-yl)methyl)piperidin-1-yl)butan-1-one] was run?
Answer: The pIC50 was 6.00 to 7.00.

Question: How did the pIC50 turn out when `C[C@@H]1[C@@H](O)[C@H](O)[C@@H](O)CN1CC1CCN(C(=O)CC(C)(C)C)CC1` [Example 96, 3,3-dimethyl-1-(4-(((2R,3R,4R,5S)-3,4,5-trihydroxy-2-methylpiperidin-1-yl)methyl)piperidin-1-yl)butan-1-one] was run?
Answer: The pIC50 was 6.00 to 7.00.

Question: With `C[C@@H]1[C@@H](O)[C@H](O)[C@@H](O)CN1CC1CCN(C(=O)CC2CCCC2)CC1` [Example 97, 2-cyclopentyl-1-(4-(((2R,3R,4R,5S)-3,4,5-trihydroxy-2-methylpiperidin-1-yl)methyl)piperidin-1-yl)ethanone] as the molecule, how does the pIC50 read?
Answer: The pIC50 was 6.00 to 7.00.

Question: With `C[C@@H]1[C@@H](O)[C@H](O)[C@@H](O)CN1CC1CCN(C(=O)C2CC2)CC1` [Example 98, cyclopropyl(4-(((2R,3R,4R,5S)-3,4,5-trihydroxy-2-methylpiperidin-1-yl)methyl)piperidin-1-yl)methanone] as the molecule, how does the pIC50 read?
Answer: The pIC50 was 4.60 to 6.00.

Question: With `C[C@@H]1[C@@H](O)[C@H](O)[C@@H](O)CN1CC1CCN(C(=O)C2CCC2)CC1` [Example 99, cyclobutyl(4-(((2R,3R,4R,5S)-3,4,5-trihydroxy-2-methylpiperidin-1-yl)methyl)piperidin-1-yl)methanone] as the molecule, how does the pIC50 read?
Answer: Its pIC50 is 6.00 to 7.00.

Question: `C[C@@H]1[C@@H](O)[C@H](O)[C@@H](O)CN1CC1CCN(C(=O)C2CCCC2)CC1` [Example 100, cyclopentyl(4-(((2R,3R,4R,5S)-3,4,5-trihydroxy-2-methylpiperidin-1-yl)methyl)piperidin-1-yl)methanone] was tested. Which pIC50 did it give?
Answer: Its pIC50 is 6.00 to 7.00.

Question: How did the pIC50 turn out when `C[C@@H]1[C@@H](O)[C@H](O)[C@@H](O)CN1CC1CCN(C(=O)C2CCCCC2)CC1` [Example 101, cyclohexyl(4-(((2R,3R,4R,5S)-3,4,5-trihydroxy-2-methylpiperidin-1-yl)methyl)piperidin-1-yl)methanone] was run?
Answer: The pIC50 was 6.00 to 7.00.

Question: `C[C@@H]1[C@@H](O)[C@H](O)[C@@H](O)CN1CC1CCN(C(=O)[C@H]2CC[C@@H](C(C)(C)C)CC2)CC1` [Example 102, ((1s,4S)-4-(tert-butyl)cyclohexyl)(4-(((2R,3R,4R,5S)-3,4,5-trihydroxy-2-methylpiperidin-1-yl)methyl)piperidin-1-yl)methanone] was tested. Which pIC50 did it give?
Answer: Its pIC50 is > 7.00.

Question: With `C[C@@H]1[C@@H](O)[C@H](O)[C@@H](O)CN1CC1CCN(C(=O)[C@H]2CC[C@H](C(C)(C)C)CC2)CC1` [Example 103, ((1r,4R)-4-(tert-butyl)cyclohexyl)(4-(((2R,3R,4R,5S)-3,4,5-trihydroxy-2-methylpiperidin-1-yl)methyl)piperidin-1-yl)methanone] as the molecule, how does the pIC50 read?
Answer: The pIC50 was > 7.00.

Question: How did the pIC50 turn out when `COC1CCC(C(=O)N2CCC(CN3C[C@H](O)[C@@H](O)[C@H](O)[C@H]3C)CC2)CC1` (stereo partly drawn) [Example 104, (4-methoxycyclohexyl)(4-(((2R,3R,4R,5S)-3,4,5-trihydroxy-2-methylpiperidin-1-yl)methyl)piperidin-1-yl)methanone] was run?
Answer: Its pIC50 is 4.60 to 6.00.

Question: With `C[C@@H]1[C@@H](O)[C@H](O)[C@@H](O)CN1CC1CCN(C(=O)C2CCC(C(F)(F)F)CC2)CC1` (stereo partly drawn) [Example 105, (4-(trifluoromethyl)cyclohexyl)(4-(((2R,3R,4R,5S)-3,4,5-trihydroxy-2-methylpiperidin-1-yl)methyl)piperidin-1-yl)methanone] as the molecule, how does the pIC50 read?
Answer: Its pIC50 is > 7.00.

Question: How did the pIC50 turn out when `C[C@@H]1[C@@H](O)[C@H](O)[C@@H](O)CN1CC1CCN(C(=O)c2ccccc2)CC1` [Example 106, phenyl(4-(((2R,3R,4R,5S)-3,4,5-trihydroxy-2-methylpiperidin-1-yl)methyl)piperidin-1-yl)methanone] was run?
Answer: Its pIC50 is 6.00 to 7.00.

Question: `C[C@@H]1[C@@H](O)[C@H](O)[C@@H](O)CN1CC1CCN(C(=O)c2cccc(C(F)(F)F)c2)CC1` [Example 107, (3-(trifluoromethyl)phenyl)(4-(((2R,3R,4R,5S)-3,4,5-trihydroxy-2-methylpiperidin-1-yl)methyl)piperidin-1-yl)methanone] was tested. Which pIC50 did it give?
Answer: The pIC50 was > 7.00.

Question: How did the pIC50 turn out when `C[C@@H]1[C@@H](O)[C@H](O)[C@@H](O)CN1CC1CCN(C(=O)Cc2ccccc2)CC1` [Example 108, 2-phenyl-1-(4-(((2R,3R,4R,5S)-3,4,5-trihydroxy-2-methylpiperidin-1-yl)methyl)piperidin-1-yl)ethanone] was run?
Answer: Its pIC50 is 6.00 to 7.00.

Question: How did the pIC50 turn out when `C[C@@H]1[C@@H](O)[C@H](O)[C@@H](O)CN1CC1CCN(C(=O)c2ccsc2)CC1` [Example 109, thiophen-3-yl(4-(((2R,3R,4R,5S)-3,4,5-trihydroxy-2-methylpiperidin-1-yl)methyl)piperidin-1-yl)methanone] was run?
Answer: The pIC50 was 6.00 to 7.00.

Question: With `C[C@@H]1[C@@H](O)[C@H](O)[C@@H](O)CN1CC1CCN(C(=O)NC2CCCCC2)CC1` [Example 110, N-cyclohexyl-4-(((2R,3R,4R,5S)-3,4,5-trihydroxy-2-methylpiperidin-1-yl)methyl)piperidine-1-carboxamide] as the molecule, how does the pIC50 read?
Answer: The pIC50 was 6.00 to 7.00.

Question: With `C[C@@H]1[C@@H](O)[C@H](O)[C@@H](O)CN1CC1CCN(C(=S)NC2CCCCC2)CC1` [Example 111, N-cyclohexyl-4-(((2R,3R,4R,5S)-3,4,5-trihydroxy-2-methylpiperidin-1-yl)methyl)piperidine-1-carbothioamide] as the molecule, how does the pIC50 read?
Answer: The pIC50 was 6.00 to 7.00.

Question: With `C[C@@H]1[C@@H](O)[C@H](O)[C@@H](O)CN1CC1CN([C@H]2CCCC[C@H]2C(F)(F)F)C1` [Example 112, (2R,3R,4R,5S)-2-methyl-1-((1-((1S,2R)-2-(trifluoromethyl)cyclohexyl)azetidin-3-yl)methyl)piperidine-3,4,5-triol] as the molecule, how does the pIC50 read?
Answer: The pIC50 was 4.60 to 6.00.

Question: How did the pIC50 turn out when `C[C@@H]1[C@@H](O)[C@H](O)[C@@H](O)CN1C[C@H]1CCN(c2ccccc2)C1` [Example 113, (2R,3R,4R,5S)-2-methyl-1-(((R)-1-phenylpyrrolidin-3-yl)methyl)piperidine-3,4,5-triol] was run?
Answer: The pIC50 was > 7.00.

Question: `C[C@@H]1[C@@H](O)[C@H](O)[C@@H](O)CN1C[C@H]1CCN(c2cc(C(F)(F)F)ccn2)C1` [Example 121, (2R,3R,4R,5S)-2-methyl-1-(((R)-1-(4-(trifluoromethyl)pyridin-2-yl)pyrrolidin-3-yl)methyl)piperidine-3,4,5-triol] was tested. Which pIC50 did it give?
Answer: Its pIC50 is > 7.00.

Question: How did the pIC50 turn out when `C[C@@H]1[C@@H](O)[C@H](O)[C@@H](O)CN1C[C@H]1CCN(c2cccnc2)C1` [Example 122, (2R,3R,4R,5S)-2-methyl-1-(((R)-1-(pyridin-3-yl)pyrrolidin-3-yl)methyl)piperidine-3,4,5-triol] was run?
Answer: The pIC50 was 4.60 to 6.00.

Question: How did the pIC50 turn out when `Cc1ccncc1N1CC[C@H](CN2C[C@H](O)[C@@H](O)[C@H](O)[C@H]2C)C1` [Example 123, (2R,3R,4R,5S)-2-methyl-1-(((R)-1-(4-methylpyridin-3-yl)pyrrolidin-3-yl)methyl)piperidine-3,4,5-triol] was run?
Answer: The pIC50 was 6.00 to 7.00.

Question: How did the pIC50 turn out when `C[C@@H]1[C@@H](O)[C@H](O)[C@@H](O)CN1C[C@H]1CCN(c2cnccc2C(F)(F)F)C1` [Example 124, (2R,3R,4R,5S)-2-methyl-1-(((R)-1-(4-(trifluoromethyl)pyridin-3-yl)pyrrolidin-3-yl)methyl)piperidine-3,4,5-triol] was run?
Answer: The pIC50 was > 7.00.

From patent US12612380B2, “Non-lysosomal glucosylceramidase inhibitors and uses thereof” (ALECTOS THERAPEUTICS INC., priority 2019, dated 2026)
